Test results taken from publication PMC9019904, “AD Informer Set: Chemical tools to facilitate Alzheimer's disease drug discovery” (Alzheimer's & Dementia : Translational Research & Clinical …, 2022).
In brackets after ≈: the same amount, converted by molar mass.

Assays:
[1] = Kinetic solubility in aqueous buffer pH 7.4 by total chemiluminescent nitrogen determination (Analiza); conditions: aqueous buffer, pH 7.4, aqueous buffer, kinetic from dmso stock
[2] = system: BV2 (mouse microglia) cell line; test: pHrodo-myelin phagocytosis/cell viability high content imaging assay: phagocytosis signal; assay type: cell-based; conditions: BV2 cells, 10 μM
How it was run: (§1)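 HCI read-out ~22 h post pHrodo-myelin; phagocytosis + viability simultaneously; 3 parameters extracted; intensity up = early apoptosis, down = later apoptosis.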

[3] = system: HMC3 (human microglia) cell line; test: as above; assay type: cell-based; conditions: HMC3 cells, 10 μM
How it was run: as §1

[4] = system: cellular system; conditions: published cellular activity at 10 μM; cited from earlier work
[5] = system: BV2 (mouse microglia) cell line; test: pHrodo-myelin phagocytosis/cell viability high content imaging assay: viability (cell count, nuclear area, nuclear intensity); conditions: BV2 cells, 10 μM, cell count <70% control
How it was run: (§2)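 10 μM single dose, 48 h total; pHrodo-myelin present final 20 h. Read-out: automated imaging, total cell count/well, mean nuclear intensity/cell. n=2, normalized to untreated wells, % control.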

[6] = system: HMC3 (human microglia) cell line; test: as above; conditions: HMC3 cells, 10 μM, cell count <70% control
How it was run: as §2

Row | SMILES | solubility kinetic [1] | Stimulation of mouse microglial phagocytosis at 10 μM (>150% control) [2] | Inhibition of human microglial phagocytosis at 10 μM (<70% control) [3] | Reported as cell active (<10 μM) [4] | Mouse microglial cytotoxicity at 10 μM (<70% control) [5] | Inhibition of mouse microglial phagocytosis at 10 μM (<70% control) [2] | Human microglial cytotoxicity at 10 μM (<70% control) [6] | Stimulation of human microglial phagocytosis at 10 μM (>150% control) [3]
1 | COC(=O)C1=C(C)NC2=C(C(=O)c3ccccc32)C1c1ccccc1OCc1ccccc1F (centres unmarked) [5408-1697] | < 2.1 µM | Y (The compound was found to stimulate phagocytosis (response threshold: >150% control) when murine immortalized microglial cells were dosed at 10 μM (Y: yes)) | Y (The compound was found to inhibit phagocytosis (response threshold: <70% control) when human immortalized microglial cells were dosed at 10 μM (Y: yes)) | Y (Published data supports that the compound is active in a cellular system when dosed at 10 μM (Y/N)) |  |  |  | 
2 | O=C(Nc1c[nH]nc1-c1nc2ccc(CN3CCOCC3)cc2[nH]1)NC1CC1 [AT9283] | 144 µM (≈ 55.1 µg/mL) |  | Y (The compound was found to inhibit phagocytosis (response threshold: <70% control) when human immortalized microglial cells were dosed at 10 μM (Y: yes)) | Y (Published data supports that the compound is active in a cellular system when dosed at 10 μM (Y/N)) | Y (The compound was found to be cytotoxic (cell count threshold: <70% control) when murine immortalized microglial cells were dosed at 10 μM (Y: yes)) | Y (The compound was found to inhibit phagocytosis (response threshold: <70% control) when murine immortalized microglial cells were dosed at 10 μM (Y: yes)) |  | 
3 | CC(C)CCN1c2nc(Nc3cc(F)c(O)c(F)c3)ncc2N(C)C(=O)C1C (centres unmarked) [BI-D1870] | 0.8 µM (≈ 0.313 µg/mL) |  |  | Y (Published data supports that the compound is active in a cellular system when dosed at 10 μM (Y/N)) | Y (The compound was found to be cytotoxic (cell count threshold: <70% control) when murine immortalized microglial cells were dosed at 10 μM (Y: yes)) |  | Y (The compound was found to be cytotoxic (cell count threshold: <70% control) when human immortalized microglial cells were dosed at 10 μM (Y: yes)) | Y (The compound was found to stimulate phagocytosis (response threshold: >150% control) when human immortalized microglial cells were dosed at 10 μM (Y: yes))
4 | CCCc1cc(-c2nc(-c3ccc(C)cc3)cs2)ccn1 [Fatostatin] | < 1.1 µM | Y (The compound was found to stimulate phagocytosis (response threshold: >150% control) when murine immortalized microglial cells were dosed at 10 μM (Y: yes)) |  | Y (Published data supports that the compound is active in a cellular system when dosed at 10 μM (Y/N)) | Y (The compound was found to be cytotoxic (cell count threshold: <70% control) when murine immortalized microglial cells were dosed at 10 μM (Y: yes)) |  |  | 
5 | CCOC(=O)c1cccc(CNc2ccc(N(C)C(=O)Nc3ccccc3)cc2)c1 [GN6958 (Compound 8)] | 3.7 µM (≈ 1.49 µg/mL) | Y (The compound was found to stimulate phagocytosis (response threshold: >150% control) when murine immortalized microglial cells were dosed at 10 μM (Y: yes)) |  | Y (Published data supports that the compound is active in a cellular system when dosed at 10 μM (Y/N)) |  |  |  | 
6 | Oc1c(F)cc(-c2cnccc2-c2ccc(N3CCOCC3)cc2)cc1F [LJI308] | 3.7 µM (≈ 1.36 µg/mL) | Y (The compound was found to stimulate phagocytosis (response threshold: >150% control) when murine immortalized microglial cells were dosed at 10 μM (Y: yes)) |  | Y (Published data supports that the compound is active in a cellular system when dosed at 10 μM (Y/N)) |  |  |  | 
7 | Cc1cc(C)nc(NC(=S)N2CCN(c3ccc(C(F)(F)F)cn3)CC2)c1 [NCT-502] | 2.6 µM (≈ 1.03 µg/mL) | Y (The compound was found to stimulate phagocytosis (response threshold: >150% control) when murine immortalized microglial cells were dosed at 10 μM (Y: yes)) |  | Y (Published data supports that the compound is active in a cellular system when dosed at 10 μM (Y/N)) |  |  |  | 
8 | Cc1cc(C)nc(NC(=S)N2CCN(Cc3ccc(C(F)(F)F)cc3)CC2)c1 [NCT-503] | 34.3 µM (≈ 14 µg/mL) | Y (The compound was found to stimulate phagocytosis (response threshold: >150% control) when murine immortalized microglial cells were dosed at 10 μM (Y: yes)) |  | Y (Published data supports that the compound is active in a cellular system when dosed at 10 μM (Y/N)) |  |  |  | 
9 | CCCCCCOc1cc2c(cc1N(C)c1ncc(C(=O)O)cn1)C(C)(C)CCC2(C)C [PA 452] | 13.9 µM (≈ 6.11 µg/mL) | Y (The compound was found to stimulate phagocytosis (response threshold: >150% control) when murine immortalized microglial cells were dosed at 10 μM (Y: yes)) | Y (The compound was found to inhibit phagocytosis (response threshold: <70% control) when human immortalized microglial cells were dosed at 10 μM (Y: yes)) | Y (Published data supports that the compound is active in a cellular system when dosed at 10 μM (Y/N)) |  |  |  | 
10 | CC(=O)c1nc([C@@H](O)[C@H](O)[C@H](O)CO)c[nH]1 [THI] | 186 µM (≈ 42.8 µg/mL) | Y (The compound was found to stimulate phagocytosis (response threshold: >150% control) when murine immortalized microglial cells were dosed at 10 μM (Y: yes)) |  | Y (Published data supports that the compound is active in a cellular system when dosed at 10 μM (Y/N)) |  |  |  | 
11 | N[C@@H](CC(=O)Nc1ccc(Oc2cc(F)c(F)cc2Br)cc1)C(=O)O [WAY 213613] | 148 µM (≈ 61.5 µg/mL) | Y (The compound was found to stimulate phagocytosis (response threshold: >150% control) when murine immortalized microglial cells were dosed at 10 μM (Y: yes)) |  | Y (Published data supports that the compound is active in a cellular system when dosed at 10 μM (Y/N)) | Y (The compound was found to be cytotoxic (cell count threshold: <70% control) when murine immortalized microglial cells were dosed at 10 μM (Y: yes)) |  |  | 
12 | CCc1ccc(S(=O)(=O)c2ccccc2)cc1S(=O)(=O)NCCCN(C)C [sFRP-1 Inhibitor] | 164 µM (≈ 67.2 µg/mL) | Y (The compound was found to stimulate phagocytosis (response threshold: >150% control) when murine immortalized microglial cells were dosed at 10 μM (Y: yes)) |  | Y (Published data supports that the compound is active in a cellular system when dosed at 10 μM (Y/N)) |  |  |  | 
